Source: patent publication US8192962B2, “Processes for detecting toxic substances” (Daikin Industries, Ltd., priority 2001, dated 2012)

Tested on: Energy system protein genes
Assay: DNA chip mRNA expression in yeast, energy system protein genes (Table 4)
Type: cell-based, Saccharomyces cerevisiae S288C
How it was run: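 Measured as treated-to-untreated fluorescence ratio on a full-genome yeast DNA chip. Cells (S288C, YPD, 25° C.) were exposed in log phase for two hours to one chemical, dosed to curb growth without killing.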

## [Cl][Cd][Cl] [(2), CdCl2]
Yeast gene YJR048W
  The level of expressed mRNA in the presence of chemical substance/The level of expressed mRNA in the absence of chemical substance: 0.9
Yeast gene YJR121W, cells incubated two hours with the chemical substance
  The level of expressed mRNA in the presence of chemical substance/The level of expressed mRNA in the absence of chemical substance: 1.1
Yeast gene YJR155W
  The level of expressed mRNA in the presence of chemical substance/The level of expressed mRNA in the absence of chemical substance: 3.7
Yeast gene YKL016C, cells incubated two hours with the chemical substance
  The level of expressed mRNA in the presence of chemical substance/The level of expressed mRNA in the absence of chemical substance: 1.3
Yeast gene YKL060C, cells incubated two hours with the chemical substance
  The level of expressed mRNA in the presence of chemical substance/The level of expressed mRNA in the absence of chemical substance: 0.8
Yeast gene YKL141W, cells incubated two hours with the chemical substance
  The level of expressed mRNA in the presence of chemical substance/The level of expressed mRNA in the absence of chemical substance: 1.1
Yeast gene YKL148C, cells incubated two hours with the chemical substance
  The level of expressed mRNA in the presence of chemical substance/The level of expressed mRNA in the absence of chemical substance: 0.8
Yeast gene YKR009C, cells incubated two hours with the chemical substance
  The level of expressed mRNA in the presence of chemical substance/The level of expressed mRNA in the absence of chemical substance: 1.2
Yeast gene YKR058W, cells incubated two hours with the chemical substance, 25° C., YPD medium
  The level of expressed mRNA in the presence of chemical substance/The level of expressed mRNA in the absence of chemical substance: 0.9
Yeast gene YKR097W
  The level of expressed mRNA in the presence of chemical substance/The level of expressed mRNA in the absence of chemical substance: 2.4
Yeast gene YLL041C, cells incubated two hours with the chemical substance
  The level of expressed mRNA in the presence of chemical substance/The level of expressed mRNA in the absence of chemical substance: 0.5
Yeast gene YLR038C, cells incubated two hours with the chemical substance
  The level of expressed mRNA in the presence of chemical substance/The level of expressed mRNA in the absence of chemical substance: 1.1
Yeast gene YLR044C, cells incubated two hours with the chemical substance
  The level of expressed mRNA in the presence of chemical substance/The level of expressed mRNA in the absence of chemical substance: 0.6
Yeast gene YLR134W, cells incubated two hours with the chemical substance
  The level of expressed mRNA in the presence of chemical substance/The level of expressed mRNA in the absence of chemical substance: 0.6
Yeast gene YLR258W, cells incubated two hours with the chemical substance
  The level of expressed mRNA in the presence of chemical substance/The level of expressed mRNA in the absence of chemical substance: 1.0
Yeast gene YLR284C, cells incubated two hours with the chemical substance
  The level of expressed mRNA in the presence of chemical substance/The level of expressed mRNA in the absence of chemical substance: 1.0
Yeast gene YLR295C, cells incubated two hours with the chemical substance, 25° C., YPD medium
  The level of expressed mRNA in the presence of chemical substance/The level of expressed mRNA in the absence of chemical substance: 1.1
Yeast gene YLR304C, cells incubated two hours with the chemical substance
  The level of expressed mRNA in the presence of chemical substance/The level of expressed mRNA in the absence of chemical substance: 0.6
Yeast gene YLR345W
  The level of expressed mRNA in the presence of chemical substance/The level of expressed mRNA in the absence of chemical substance: 1.4
Yeast gene YLR354C, cells incubated two hours with the chemical substance
  The level of expressed mRNA in the presence of chemical substance/The level of expressed mRNA in the absence of chemical substance: 2.5
Yeast gene YLR377C, cells incubated two hours with the chemical substance
  The level of expressed mRNA in the presence of chemical substance/The level of expressed mRNA in the absence of chemical substance: 2.6
Yeast gene YLR395C, cells incubated two hours with the chemical substance
  The level of expressed mRNA in the presence of chemical substance/The level of expressed mRNA in the absence of chemical substance: 1.3
Yeast gene YML087C
  The level of expressed mRNA in the presence of chemical substance/The level of expressed mRNA in the absence of chemical substance: 1.6
Yeast gene YML120C, cells incubated two hours with the chemical substance
  The level of expressed mRNA in the presence of chemical substance/The level of expressed mRNA in the absence of chemical substance: 1.2
Yeast gene YML129C, cells incubated two hours with the chemical substance
  The level of expressed mRNA in the presence of chemical substance/The level of expressed mRNA in the absence of chemical substance: 0.9
Yeast gene YMR073C, cells incubated two hours with the chemical substance
  The level of expressed mRNA in the presence of chemical substance/The level of expressed mRNA in the absence of chemical substance: 1.1
Yeast gene YMR118C
  The level of expressed mRNA in the presence of chemical substance/The level of expressed mRNA in the absence of chemical substance: 2.9
Yeast gene YMR205C, cells incubated two hours with the chemical substance
  The level of expressed mRNA in the presence of chemical substance/The level of expressed mRNA in the absence of chemical substance: 0.7
Yeast gene YMR261C, cells incubated two hours with the chemical substance
  The level of expressed mRNA in the presence of chemical substance/The level of expressed mRNA in the absence of chemical substance: 1.6
Yeast gene YMR267W, cells incubated two hours with the chemical substance, 25° C., YPD medium
  The level of expressed mRNA in the presence of chemical substance/The level of expressed mRNA in the absence of chemical substance: 1.8
Yeast gene YMR323W, cells incubated two hours with the chemical substance
  The level of expressed mRNA in the presence of chemical substance/The level of expressed mRNA in the absence of chemical substance: 1.1
Yeast gene YNL071W
  The level of expressed mRNA in the presence of chemical substance/The level of expressed mRNA in the absence of chemical substance: 0.9
Yeast gene YNL202W, cells incubated two hours with the chemical substance
  The level of expressed mRNA in the presence of chemical substance/The level of expressed mRNA in the absence of chemical substance: 1.3
Yeast gene YNL241C
  The level of expressed mRNA in the presence of chemical substance/The level of expressed mRNA in the absence of chemical substance: 2.5
Yeast gene YNL331C
  The level of expressed mRNA in the presence of chemical substance/The level of expressed mRNA in the absence of chemical substance: 3.6
Yeast gene YOL086C, cells incubated two hours with the chemical substance
  The level of expressed mRNA in the presence of chemical substance/The level of expressed mRNA in the absence of chemical substance: 0.5
Yeast gene YOL165C
  The level of expressed mRNA in the presence of chemical substance/The level of expressed mRNA in the absence of chemical substance: 4.5
Yeast gene YOR142W, cells incubated two hours with the chemical substance
  The level of expressed mRNA in the presence of chemical substance/The level of expressed mRNA in the absence of chemical substance: 1.2
Yeast gene YOR178C, cells incubated two hours with the chemical substance
  The level of expressed mRNA in the presence of chemical substance/The level of expressed mRNA in the absence of chemical substance: 1.3
Yeast gene YOR388C, cells incubated two hours with the chemical substance
  The level of expressed mRNA in the presence of chemical substance/The level of expressed mRNA in the absence of chemical substance: 1.6
Yeast gene YPL031C, cells incubated two hours with the chemical substance
  The level of expressed mRNA in the presence of chemical substance/The level of expressed mRNA in the absence of chemical substance: 2.0
Yeast gene YPL061W, cells incubated two hours with the chemical substance
  The level of expressed mRNA in the presence of chemical substance/The level of expressed mRNA in the absence of chemical substance: 1.4
Yeast gene YPL088W
  The level of expressed mRNA in the presence of chemical substance/The level of expressed mRNA in the absence of chemical substance: 1.3
Yeast gene YPL171C
  The level of expressed mRNA in the presence of chemical substance/The level of expressed mRNA in the absence of chemical substance: 4.1
Yeast gene YPL240C
  The level of expressed mRNA in the presence of chemical substance/The level of expressed mRNA in the absence of chemical substance: 1.4
Yeast gene YPL262W, cells incubated two hours with the chemical substance
  The level of expressed mRNA in the presence of chemical substance/The level of expressed mRNA in the absence of chemical substance: 1.7
Yeast gene YPL275W, cells incubated two hours with the chemical substance
  The level of expressed mRNA in the presence of chemical substance/The level of expressed mRNA in the absence of chemical substance: 1.5
Yeast gene YPL276W, cells incubated two hours with the chemical substance
  The level of expressed mRNA in the presence of chemical substance/The level of expressed mRNA in the absence of chemical substance: 1.5
Yeast gene YPR048W, cells incubated two hours with the chemical substance
  The level of expressed mRNA in the presence of chemical substance/The level of expressed mRNA in the absence of chemical substance: 2.0
Yeast gene YPR184W, cells incubated two hours with the chemical substance
  The level of expressed mRNA in the presence of chemical substance/The level of expressed mRNA in the absence of chemical substance: 1.4
